Experimental data taken from patent US8507411B2, “Neoglycorandomization and digitoxin analogs” (priority 2004, dated 2013).
Read-outs that look alike come from different tables or passages of the source.

Tests used:
NmuMG = experiment: cells; format: cell-based, mouse
Description: (§1) In the assay, live cells were distinguished by the presence of a ubiquitous intracellular enzymatic activity which converts the non-fluorescent cell-permeable molecule calcein AM to the intensely fluorescent molecule calcein, which is retained within live cells. The IC50 value for each library member represents at least six replicates of dose-response experiments conducted over five concentrations using two-fold dilutions. […] Standard errors are depicted with error bars. Numerical values and corresponding error values can be found in Table 4. Du145: […]; MCF7: human breast carcinoma; HCT-116: human colon carcinoma, Hep3B: human liver carcinoma; SF-268: human CNS glioblastoma; SK-OV-3: human ovary adenocarcinoma; NCI-H460: human lung carcinoma; A549: human lung adenocarcinoma; NCI/ADR-RES: human breast carcinoma; NmuMG: mouse mammary normal epithelial.
(§2) Cell Culture: All cell lines except NmuMG were maintained in RPMI 1640 medium from InVitrogen (Cat No. 11875-085) supplemented with 10% w/v fetal bovine serum (FBS) from ICN (Cat No. 2916154) and penicillin-streptomycin (PS) (100 U/mL and 100 μg/mL) from InVitrogen (Cat No. 15140-122). NmuMG cells were maintained in DMEM medium from InVitrogen (Cat No. 11965-084) supplemented with 10% w/v fetal bovine serum (FBS) from ICN (Cat No. 2916154), 10 μg/ml insulin (InVitrogen Cat No 12585-014), and penicillin-streptomycin (PS) (100 U/mL and 100 μg/mL) from InVitrogen (Cat No. 15140-122). Cells were harvested by trypsinization using 0.25% w/v trypsin and 0.1% w/v EDTA from InVitrogen (Cat No. 15-050-057) and then counted in a hemocytometer in duplicate with better than 10% agreement in field counts. Cells were plated at a cell density of 10,000-15,000 cells/well of each Corning Costar 96-well black tissue culture treated microtiter plate (Fisher Cat No. 07-200-627). Cells were grown for 1 h at 37° C., with 5% CO2 in a humidified incubator to allow cell attachment to occur before compound addition.
(§3) Library Member Handling and Preparation for Cytotoxicity Assays: Library members were stored at −20° C. under dessicating conditions before the assay. Library member stocks (100×) were prepared in Corning Costar polypropylene 96-well V-bottom polypropylene microtiter plates (Fisher Cat No. 07-200-695). Five serial 1:2 dilutions were made with anhydrous DMSO at 100× the final concentration used in the assay.
(§4) Library Member Addition: The library member-containing plates were diluted 1:10 with complete cell culture media. The 10× stocks (10 μL) were added to the attached cells using a Biomek FX liquid handler (Beckman-Coulter). Library member stocks (10 μL) were added to 90 μL of cells in each plate to insure full mixing of stocks with culture media using a Beckman FX liquid handler with 96-well head.
(§5) Determination of Cytotoxicity: Cells were incubated with the library members for 72 h before fluorescence reading. Test plates were removed from the incubator and washed 1× in sterile PBS to remove serum containing calcium esterases. Calcein AM reagent (30 μL, […]) was added and the cells were incubated for 30 min at 37° C. Plates were read for emission using a fluorescein filter (excitation 485 nm, emission 535 nm).
(§6) IC50 Calculation: For each library member, at least six dose response experiments were conducted. […] To calculate IC50, percent inhibitions were plotted as a function of log [concentration] and then fit to a four-parameter logistic model that allowed for a variable Hill slope using XLfit 4.1.
(§7) Cytotoxicity Assays. All cell lines except NmuMG were maintained in RPMI 1640 medium supplemented with 10% w/v fetal bovine serum (FBS) and penicillin-streptomycin (PS) (100 U/mL and 100 μg/mL).

NCI/ADR-RES = experiment: cells; format: cell-based, human; conditions: NCI/ADR-RES cells
Description: as §1, §2, §3, §4, §5, §6, §7

SF-268 = experiment: cells; format: cell-based, human; conditions: SF-268 cells
Description: as §1, §2, §3, §4, §5, §6, §7

SK-OV-3 = experiment: cells; format: cell-based, human; conditions: SK-OV-3 cells
Description: as §1, §2, §3, §4, §5, §6, §7

Hep3B = experiment: High-throughput calcein AM cytotoxicity assay, Hep3B; format: cell-based, human; conditions: Hep 3B cells
Description: (§8) Standard errors are depicted with error bars.

NCI-H460 = experiment: High-throughput calcein AM cytotoxicity assay, NCI-H460; format: cell-based, human; conditions: NCI-H460 cells
Description: as §8

MCF7 = experiment: High-throughput calcein AM cytotoxicity assay, MCF7; format: cell-based, human; conditions: MCF7 cells
Description: as §8

HCT-116 = experiment: High-throughput calcein AM cytotoxicity assay, HCT-116; format: cell-based, human; conditions: HCT-116 cells
Description: as §8

Du145 = experiment: High-throughput calcein AM cytotoxicity assay, Du145; format: cell-based, human; conditions: Du145 cells
Description: as §8

A549 = experiment: High-throughput calcein AM cytotoxicity assay, A549; format: cell-based, human; conditions: A549 cells
Description: as §8

[1] = NmuMG mouse mammary normal epithelial control line, read-out: IC50, NmuMG
[2] = NmuMG cells (mouse mammary normal epithelial control line), read-out: IC50

Row | Compound | IC50 (NmuMG; [1]) [nM] | IC50 (NCI/ADR-RES; read-out: IC50, NCI/ADR-RES) [nM] | IC50 (SF-268; read-out: IC50, SF-268) [nM] | IC50 (SK-OV-3; read-out: IC50, SK-OV-3) [nM] | IC50 (Hep3B; read-out: IC50, Hep 3B) [nM] | IC50 (NCI-H460; read-out: IC50, NCI-H460) [nM] | IC50 (MCF7; read-out: IC50, MCF7) [nM] | IC50 (HCT-116; read-out: IC50, HCT-116) [nM] | IC50 (Du145; read-out: IC50, Du145) [nM] | IC50 (A549; read-out: IC50, A549) [nM] | IC50 (NmuMG; [2]) [nM] | IC50 (NCI/ADR-RES; read-out: IC50) [nM] | IC50 (SF-268; read-out: IC50) [nM] | IC50 (SK-OV-3; read-out: IC50) [nM] | IC50 (Hep3B; read-out: IC50) [nM] | IC50 (NCI-H460; read-out: IC50) [nM] | IC50 (MCF7; read-out: IC50) [nM] | IC50 (HCT-116; read-out: IC50) [nM] | IC50 (Du145; read-out: IC50) [nM] | IC50 (A549; read-out: IC50) [nM]
1 | CON([C@H]1CC[C@@]2(C)[C@H](CC[C@@H]3[C@@H]2CC[C@]2(C)[C@@H](C4=CC(=O)OC4)CC[C@]32O)C1)[C@@H]1O[C@H](CO)[C@@H](O)[C@@H](O)[C@@H]1O [20β, D-altroside] | 900 | 900 | 1100 | 1100 | 350 | 620 | 1500 | 1100 | 1200 | 540 |  |  |  |  |  |  |  |  |  | 
2 | CON(C1CCC2(C)C(CCC3C2CCC2(C)C(C4=CC(=O)OC4)CCC32O)C1)C1OCC(O)C(O)C1O [5α, L-riboside] | > 25000 | > 25000 | > 25000 | > 25000 | > 25000 | > 25000 | > 25000 | > 25000 | > 25000 | > 25000 |  |  |  |  |  |  |  |  |  | 
3 | CON([C@H]1CC[C@@]2(C)[C@H](CC[C@@H]3[C@@H]2CC[C@]2(C)[C@@H](C4=CC(=O)OC4)CC[C@]32O)C1)[C@H]1O[C@@H](CO)[C@H](O)[C@H](O)[C@@H]1O [17β, L-alloside] | 330 | 160 | 400 | 700 | 800 | 690 | 900 | 500 | 790 | 240 |  |  |  |  |  |  |  |  |  | 
4 | CON([C@H]1CC[C@@]2(C)[C@H](CC[C@@H]3[C@@H]2CC[C@]2(C)[C@@H](C4=CC(=O)OC4)CC[C@]32O)C1)[C@@H]1OC[C@@H](O)[C@@H](O)[C@H]1O [6β, D-riboside] | 480 | 660 | 1800 | 1700 | 900 | 900 | 3000 | 1300 | 720 | 1020 |  |  |  |  |  |  |  |  |  | 
5 | CON(C1CCC2(C)C(CCC3C2CCC2(C)C(C4=CC(=O)OC4)CCC32O)C1)C1OC(CO)C(O)C(O)C1O [29α, D-idoside] |  | > 25000 | > 25000 | > 25000 | > 25000 | > 25000 | > 25000 | > 25000 | > 25000 | > 25000 | > 25000 |  |  |  |  |  |  |  |  | 
6 | CON(C1CCC2(C)C(CCC3C2CCC2(C)C(C4=CC(=O)OC4)CCC32O)C1)C1OCC(O)C(O)C1O [15α, D-lyxoside] | > 25000 | > 25000 | > 25000 | > 25000 | > 25000 | > 25000 | > 25000 | > 25000 | > 25000 | > 25000 |  |  |  |  |  |  |  |  |  | 
7 | CON([C@H]1CC[C@@]2(C)[C@H](CC[C@@H]3[C@@H]2CC[C@]2(C)[C@@H](C4=CC(=O)OC4)CC[C@]32O)C1)[C@H]1C[C@@H](O)[C@@H](O)[C@@H](CO)O1 [9β, 2-deoxy-D-galactoside] | > 25000 | 900 | 8000 | 4000 | 3600 | 2000 | 5100 | 10000 | 7000 | 1300 |  |  |  |  |  |  |  |  |  | 
8 | CON(C1CCC2(C)C(CCC3C2CCC2(C)C(C4=CC(=O)OC4)CCC32O)C1)C1OC(C)C(O)C(O)C1O [7α, L-fucoside] | > 25000 | > 25000 | > 25000 | > 25000 | > 25000 | > 25000 | > 25000 | > 25000 | > 25000 | > 25000 |  |  |  |  |  |  |  |  |  | 
9 | CON([C@H]1CC[C@@]2(C)[C@H](CC[C@@H]3[C@@H]2CC[C@]2(C)[C@@H](C4=CC(=O)OC4)CC[C@]32O)C1)[C@@H]1O[C@H](CO)[C@H](O)[C@@H](O)[C@@H]1O [29β, D-idoside] | > 25000 | 1500 | 1300 | 1500 | 300 | 1300 | 440 | 2300 | 1300 | 370 |  |  |  |  |  |  |  |  |  | 
10 | CON(C1CCC2(C)C(CCC3C2CCC2(C)C(C4=CC(=O)OC4)CCC32O)C1)C1OC(CO)C(O)CC1O [10α, 3-deoxy-D-glucoside] | > 25000 | > 25000 | > 25000 | > 25000 | > 25000 | > 25000 | > 25000 | > 25000 | > 25000 | > 25000 |  |  |  |  |  |  |  |  |  | 
11 | CON(C1CCC2(C)C(CCC3C2CCC2(C)C(C4=CC(=O)OC4)CCC32O)C1)C1OCC(O)C(O)C1O [6α, D-riboside] | > 25000 | > 25000 | > 25000 | > 25000 | > 25000 | > 25000 | > 25000 | > 25000 | > 25000 | > 25000 |  |  |  |  |  |  |  |  |  | 
12 | CON([C@H]1CC[C@@]2(C)[C@H](CC[C@@H]3[C@@H]2CC[C@]2(C)[C@@H](C4=CC(=O)OC4)CC[C@]32O)C1)[C@@H]1O[C@H](CO)[C@H](O)[C@H](O)[C@H]1O [22β, D-galactoside] | 1500 | 800 | 1200 | 1500 | 600 | 1600 | 3000 | 1800 | 1500 | 970 |  |  |  |  |  |  |  |  |  | 
13 | CON(C1CCC2(C)C(CCC3C2CCC2(C)C(C4=CC(=O)OC4)CCC32O)C1)C1OCC(O)C(O)C1O [14α, L-lyxoside] | > 25000 | > 25000 | > 25000 | > 25000 | > 25000 | > 25000 | > 25000 | > 25000 | > 25000 | > 25000 |  |  |  |  |  |  |  |  |  | 
14 | 6-deoxy-6-azido-D-mannoside [41α] |  |  |  |  |  |  |  |  |  |  | > 25000 | > 25000 | > 25000 | > 25000 | > 25000 | > 25000 | > 25000 | > 25000 | > 25000 | > 25000
15 | 6-keto-D-galactoside [31α] |  | > 25000 | > 25000 | > 25000 | > 25000 | > 25000 | > 25000 | > 25000 | > 25000 | > 25000 | > 25000 |  |  |  |  |  |  |  |  | 
16 | CON([C@H]1CC[C@@]2(C)[C@H](CC[C@@H]3[C@@H]2CC[C@]2(C)[C@@H](C4=CC(=O)OC4)CC[C@]32O)C1)[C@H]1O[C@@H](CO)[C@@H](O)[C@H](O)[C@H]1O [28β, L-idoside] | 1800 | 610 | 2100 | 2400 | 1000 | 1300 | 2600 | 3200 | 1900 | 1140 |  |  |  |  |  |  |  |  |  | 
